PubChem BioAssay (NCI)
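In this assay, cells in 96-well plates receive the compound at five concentrations for 48 hours. Endpoints are linearly interpolated between the surrounding concentrations. GI50: concentration for 50% inhibition of growth. The concentration for full growth arrest is given as TGI.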

Experiments:
Test in all cases: growth of human tumour cells (NCI), 48 h
786-0 renal = system: 786-0 renal
A498 renal = system: A498 renal
A549 NSCLC = system: A549 NSCLC
ACHN renal = system: ACHN renal
BT-549 breast = system: BT-549 breast
CAKI-1 renal = system: CAKI-1 renal
CCRF-CEM leukemia = system: CCRF-CEM leukemia
COLO 205 colon = system: COLO 205 colon
DU-145 prostate = system: DU-145 prostate
EKVX NSCLC = system: EKVX NSCLC
HCC-2998 colon = system: HCC-2998 colon
HCT-116 colon = system: HCT-116 colon
HCT-15 colon = system: HCT-15 colon
HL-60(TB) leukemia = system: HL-60(TB) leukemia
HOP-62 NSCLC = system: HOP-62 NSCLC
HOP-92 NSCLC = system: HOP-92 NSCLC
HS 578T breast = system: HS 578T breast
HT29 colon = system: HT29 colon
IGROV1 ovarian = system: IGROV1 ovarian
K-562 leukemia = system: K-562 leukemia
KM12 colon = system: KM12 colon
LOX IMVI melanoma = system: LOX IMVI melanoma
M14 melanoma = system: M14 melanoma
MALME-3M melanoma = system: MALME-3M melanoma
MCF7 breast = system: MCF7 breast
MDA-MB-231 breast = system: MDA-MB-231 breast
MDA-MB-435 = system: MDA-MB-435
MOLT-4 leukemia = system: MOLT-4 leukemia
NCI-H226 lung = system: NCI-H226 lung
NCI-H23 lung = system: NCI-H23 lung
NCI-H460 lung = system: NCI-H460 lung
NCI-H522 lung = system: NCI-H522 lung
NCI/ADR-RES ovarian = system: NCI/ADR-RES ovarian
OVCAR-3 ovarian = system: OVCAR-3 ovarian
OVCAR-4 ovarian = system: OVCAR-4 ovarian
OVCAR-5 ovarian = system: OVCAR-5 ovarian
OVCAR-8 ovarian = system: OVCAR-8 ovarian
PC-3 prostate = system: PC-3 prostate
RPMI-8226 leukemia = system: RPMI-8226 leukemia
RXF 393 renal = system: RXF 393 renal
SF-268 CNS = system: SF-268 CNS
SF-539 CNS = system: SF-539 CNS
SK-MEL-2 melanoma = system: SK-MEL-2 melanoma
SK-MEL-28 melanoma = system: SK-MEL-28 melanoma
SK-MEL-5 melanoma = system: SK-MEL-5 melanoma
SN12C renal = system: SN12C renal
SNB-19 CNS = system: SNB-19 CNS
SNB-75 CNS = system: SNB-75 CNS
SR leukemia = system: SR leukemia
SW-620 colon = system: SW-620 colon
T-47D breast = system: T-47D breast
TK-10 renal = system: TK-10 renal
U251 CNS = system: U251 CNS
UACC-257 melanoma = system: UACC-257 melanoma
UACC-62 melanoma = system: UACC-62 melanoma
UO-31 renal = system: UO-31 renal
SF-295 CNS = system: SF-295 CNS
SK-OV-3 ovarian = system: SK-OV-3 ovarian

For Clc1ccc(Cc2nc3cc4ccccc4cc3[nH]2)cc1Cl, the TGI (786-0 renal) was > 100 µM, the TGI (A498 renal) was 27.7 µM and the TGI (A549 NSCLC) was 68.9 µM. It also gave a TGI (ACHN renal) of 81.2 µM, a TGI (BT-549 breast) of 37.2 µM and a TGI (CAKI-1 renal) of 43.5 µM. The TGI (CCRF-CEM leukemia) was > 100 µM, the TGI (COLO 205 colon) was > 100 µM and the TGI (DU-145 prostate) was 45.7 µM. For the same molecule, the TGI (EKVX NSCLC) was 78.2 µM, the TGI (HCC-2998 colon) was 40.4 µM and the TGI (HCT-116 colon) was > 100 µM. The TGI (HCT-15 colon) was > 100 µM, the TGI (HL-60(TB) leukemia) was 59.2 µM and the TGI (HOP-62 NSCLC) was 82.9 µM. It also gave a TGI (HOP-92 NSCLC) of 30.6 µM, a TGI (HS 578T breast) of 64.5 µM and a TGI (HT29 colon) of 28.5 µM. It also gave a TGI (IGROV1 ovarian) of 16.7 µM, a TGI (K-562 leukemia) of 83 µM and a TGI (KM12 colon) of 45.9 µM. For the same molecule, the TGI (LOX IMVI melanoma) was 60.8 µM, the TGI (M14 melanoma) was 75.3 µM and the TGI (MALME-3M melanoma) was 39.4 µM. It also gave a TGI (MCF7 breast) of 67.3 µM, a TGI (MDA-MB-231 breast) of 38 µM and a TGI (MDA-MB-435) of 49.3 µM. The TGI (MOLT-4 leukemia) was 4.03 µM, the TGI (NCI-H226 lung) was 78 µM and the TGI (NCI-H23 lung) was 71.6 µM. The TGI (NCI-H460 lung) was > 100 µM, the TGI (NCI-H522 lung) was 29 µM and the TGI (NCI/ADR-RES ovarian) was 96.4 µM. The TGI (OVCAR-3 ovarian) was 61 µM, the TGI (OVCAR-4 ovarian) was 36.8 µM and the TGI (OVCAR-5 ovarian) was > 100 µM. The TGI (OVCAR-8 ovarian) was 49.8 µM, the TGI (PC-3 prostate) was 43.4 µM and the TGI (RPMI-8226 leukemia) was > 100 µM. For the same molecule, the TGI (RXF 393 renal) was 40.2 µM, the TGI (SF-268 CNS) was 62.7 µM and the TGI (SF-539 CNS) was 41.3 µM. For the same molecule, the TGI (SK-MEL-2 melanoma) was 34.4 µM, the TGI (SK-MEL-28 melanoma) was 29.4 µM and the TGI (SK-MEL-5 melanoma) was 20.4 µM. It also gave a TGI (SN12C renal) of 52.2 µM, a TGI (SNB-19 CNS) of 46 µM and a TGI (SNB-75 CNS) of 44.5 µM. The TGI (SR leukemia) was 30.8 µM, the TGI (SW-620 colon) was 41.3 µM and the TGI (T-47D breast) was 39.7 µM. For the same molecule, the TGI (TK-10 renal) was 39.8 µM, the TGI (U251 CNS) was 78.3 µM and the TGI (UACC-257 melanoma) was 37.7 µM. The TGI (UACC-62 melanoma) was 34.2 µM and the TGI (UO-31 renal) was 28.5 µM.

With ClC/C=C/CSc1ncnc2nc[nH]c12 the GI50 (786-0 renal) was > 100 µM, the TGI (786-0 renal) was > 100 µM and the GI50 (A498 renal) was > 100 µM. The TGI (A498 renal) was > 100 µM, the GI50 (ACHN renal) was > 100 µM and the TGI (ACHN renal) was > 100 µM. For the same molecule, the GI50 (BT-549 breast) was > 100 µM, the TGI (BT-549 breast) was > 100 µM and the GI50 (CAKI-1 renal) was > 100 µM. The TGI (CAKI-1 renal) was > 100 µM, the GI50 (CCRF-CEM leukemia) was > 100 µM and the TGI (CCRF-CEM leukemia) was > 100 µM. The GI50 (COLO 205 colon) was > 100 µM, the TGI (COLO 205 colon) was > 100 µM and the GI50 (DU-145 prostate) was > 100 µM. For the same molecule, the TGI (DU-145 prostate) was > 100 µM, the GI50 (EKVX NSCLC) was > 100 µM and the TGI (EKVX NSCLC) was > 100 µM. For the same molecule, the GI50 (HCC-2998 colon) was > 100 µM, the TGI (HCC-2998 colon) was > 100 µM and the GI50 (HCT-116 colon) was > 100 µM. The TGI (HCT-116 colon) was > 100 µM, the GI50 (HCT-15 colon) was > 100 µM and the TGI (HCT-15 colon) was > 100 µM. For the same molecule, the GI50 (HOP-62 NSCLC) was > 100 µM, the TGI (HOP-62 NSCLC) was > 100 µM and the GI50 (HOP-92 NSCLC) was > 100 µM. The TGI (HOP-92 NSCLC) was > 100 µM, the GI50 (HS 578T breast) was > 100 µM and the TGI (HS 578T breast) was > 100 µM. For the same molecule, the GI50 (HT29 colon) was > 100 µM, the TGI (HT29 colon) was > 100 µM and the GI50 (IGROV1 ovarian) was > 100 µM. For the same molecule, the TGI (IGROV1 ovarian) was > 100 µM, the GI50 (K-562 leukemia) was > 100 µM and the TGI (K-562 leukemia) was > 100 µM. The GI50 (KM12 colon) was > 100 µM, the TGI (KM12 colon) was > 100 µM and the GI50 (LOX IMVI melanoma) was > 100 µM. The TGI (LOX IMVI melanoma) was > 100 µM, the GI50 (M14 melanoma) was > 100 µM and the TGI (M14 melanoma) was > 100 µM. For the same molecule, the GI50 (MALME-3M melanoma) was > 100 µM, the TGI (MALME-3M melanoma) was > 100 µM and the GI50 (MCF7 breast) was > 100 µM. For the same molecule, the TGI (MCF7 breast) was > 100 µM, the GI50 (MDA-MB-231 breast) was > 100 µM and the TGI (MDA-MB-231 breast) was > 100 µM. The GI50 (MDA-MB-435) was > 100 µM, the TGI (MDA-MB-435) was > 100 µM and the GI50 (MOLT-4 leukemia) was > 100 µM. For the same molecule, the TGI (MOLT-4 leukemia) was > 100 µM, the GI50 (NCI-H226 lung) was > 100 µM and the TGI (NCI-H226 lung) was > 100 µM. For the same molecule, the GI50 (NCI-H23 lung) was > 100 µM, the TGI (NCI-H23 lung) was > 100 µM and the GI50 (NCI-H460 lung) was > 100 µM. For the same molecule, the TGI (NCI-H460 lung) was > 100 µM, the GI50 (NCI/ADR-RES ovarian) was > 100 µM and the TGI (NCI/ADR-RES ovarian) was > 100 µM. The GI50 (OVCAR-3 ovarian) was > 100 µM, the TGI (OVCAR-3 ovarian) was > 100 µM and the GI50 (OVCAR-4 ovarian) was > 100 µM. The TGI (OVCAR-4 ovarian) was > 100 µM, the GI50 (OVCAR-5 ovarian) was > 100 µM and the TGI (OVCAR-5 ovarian) was > 100 µM. For the same molecule, the GI50 (OVCAR-8 ovarian) was > 100 µM, the TGI (OVCAR-8 ovarian) was > 100 µM and the GI50 (PC-3 prostate) was > 100 µM. For the same molecule, the TGI (PC-3 prostate) was > 100 µM, the GI50 (RPMI-8226 leukemia) was > 100 µM and the TGI (RPMI-8226 leukemia) was > 100 µM. The GI50 (RXF 393 renal) was > 100 µM, the TGI (RXF 393 renal) was > 100 µM and the GI50 (SF-268 CNS) was > 100 µM. The TGI (SF-268 CNS) was > 100 µM, the GI50 (SF-295 CNS) was > 100 µM and the TGI (SF-295 CNS) was > 100 µM. The GI50 (SF-539 CNS) was > 100 µM, the TGI (SF-539 CNS) was > 100 µM and the GI50 (SK-MEL-28 melanoma) was > 100 µM. The TGI (SK-MEL-28 melanoma) was > 100 µM, the GI50 (SK-MEL-5 melanoma) was > 100 µM and the TGI (SK-MEL-5 melanoma) was > 100 µM. For the same molecule, the GI50 (SK-OV-3 ovarian) was > 100 µM, the TGI (SK-OV-3 ovarian) was > 100 µM and the GI50 (SN12C renal) was > 100 µM. For the same molecule, the TGI (SN12C renal) was > 100 µM, the GI50 (SNB-19 CNS) was > 100 µM and the TGI (SNB-19 CNS) was > 100 µM. For the same molecule, the GI50 (SNB-75 CNS) was > 100 µM, the TGI (SNB-75 CNS) was > 100 µM and the GI50 (SR leukemia) was > 100 µM. The TGI (SR leukemia) was > 100 µM, the GI50 (SW-620 colon) was > 100 µM and the TGI (SW-620 colon) was > 100 µM. The GI50 (T-47D breast) was > 100 µM, the TGI (T-47D breast) was > 100 µM and the GI50 (U251 CNS) was > 100 µM. For the same molecule, the TGI (U251 CNS) was > 100 µM, the GI50 (UACC-257 melanoma) was > 100 µM and the TGI (UACC-257 melanoma) was > 100 µM. For the same molecule, the GI50 (UACC-62 melanoma) was > 100 µM, the TGI (UACC-62 melanoma) was > 100 µM and the GI50 (UO-31 renal) was > 100 µM. The TGI (UO-31 renal) was > 100 µM.
